From US11312676B2, “Small molecule stimulators of steroid receptor coactivator proteins and their use in the treatment of cancer” (BAYLOR COLLEGE OF MEDICINE, priority 2014, dated 2022)
Peptide text beside a SMILES is read from it. * marks the point of attachment. Cbz = O=C(OCc1ccccc1)*; CH2F = FC*

Legend:
Assay type in all cases: cell-based
SRC-2 = target: T1, SRC-2 (Homo sapiens, UniProt Q15596); test: Gal4 luciferase reporter assay (pBIND-SRC-2 + pG5-LUC) in HeLa cells; details: for intrinsic transcriptional activity of SRC-2: 24 hours, additional paraptosis agents
T1 construct: expressed in transfected cells; host or cells: HeLa
Protocol: (§1) The constructs expressing the Gal4 responsive luciferase reporter (pG5-luc), Gal4 DBD fusion with SRC-1, […] (pBIND-SRC-1/-2/-3), MMP2 or MMP13 promoter driven luciferase reporter (MMP2-luc, MMP13-luc) were prepared. Twenty-four hours before transfection, HeLa cells were plated in 24-well dishes. The indicated expression plasmids were transfected into cells using Lipofectamine 2000 according to the manufacturer's instructions.
(§2) After various compound treatments, cells were lysed in luciferase lysis buffer and assayed for luciferase activity using the ONE-Glo luciferase assay system (Promega, Madison, Wis.). All luciferase activities were normalized to protein concentration determined by Bradford assay (Bio-Rad, Hercules, Calif.).

SRC-3 = target: T2, SRC-3 (Homo sapiens, UniProt Q9Y6Q9); test: Gal4 luciferase reporter assay (pBIND-SRC-3 + pG5-LUC) in HeLa cells; details: for intrinsic transcriptional activity of SRC-3: 24 hours, additional paraptosis agents; for effect on activation of SRC-3 by MCB-613: co-treatment with MCB-613, 24 hours
T2 construct: expressed in transfected cells; host or cells: HeLa
Protocol: as §1, §2
HeLa cells were transfected with a Gal4 responsive luciferase reporter (pG5-luc) and a construct encoding SRC-1, SRC-2 or SRC-3 fused with the DNA binding domain of Gal4 (pBIND-SRC-1, pBIND-SRC-2 or pBIND-SRC-3) were treated with the indicated compounds.

SRC-1 = SRC-1 (Homo sapiens, UniProt Q15788); test: Gal4 luciferase reporter assay (pBIND-SRC-1 + pG5-LUC) in HeLa cells; parameters: expressed in transfected cells; host or cells: HeLa; details: for intrinsic transcriptional activity of SRC-1: 24 hours, additional paraptosis agents
Protocol: as §1, §2

HeLa cells [1] = test: Cytoplasmic vacuolization of cancer cells; details: HeLa cells, co-treatment with MCB-613, 24 hours
HeLa cells [2] = test: Western blot of stress, UPR, autophagy and apoptosis markers in HeLa cells; details: co-treatment with MCB-613, 24 hours
Protocol: For Western blotting, cells were harvested and lysed in lysis buffer (50 mM Tris, pH 8.0, 150 mM NaCl, 10% glycerol, 0.5% NP40, protease and phosphatase inhibitor) and then centrifuged for 15 min at 14000 rpm at 4° C. After total cellular protein concentration was determined by Bradford analysis (Bio-Rad, Hercules, Calif.), protein lysates were loaded onto and resolved by sodium dodecyl sulfate-polyacrylamide gel electrophoresis (SDS-PAGE) and transferred to PVDF membranes (BioRad) which were blocked and incubated with indicated antibodies. For immunoprecipitation, 10 μg of plasmid encoding FLAG-SRC-3 was transfected into HeLa cells with 90% confluence in one 10 cm plate with lipofectamine 2000 (Invitrogen). Twenty-four hours after transfection, the cells were treated with MCB-613 for one hour and lysed with lysis buffer (25 mM Tris-Cl pH7.5, 150 mM NaCl, 5% glycerol, 1 mM EDTA, 1% Triton X-100, protease and phosphatase inhibitor) at 4° C. After a 30-second sonication, the lysate was cleared by centrifugation at 14000 rpm at 4° C. for 15 minutes and was incubated with anti-Flag-M2 agarose affinity gel (Sigma) for four hours. The agarose gel was washed four times with washing buffer (25 mM Tris pH 8.0, 150 mM NaCl, 1 mM EDTA, 1% Triton X-100) and resuspended with SDS loading buffer for Western blotting.

HeLa cells [3] = test: MTS cell viability assay, HeLa cells; details: HeLa cells, co-treatment with MCB-613, 24 hours
[4] = system: TM4 Sertoli cells and GBM cancer cells; test: CellTiter-Glo viability, TM4 Sertoli cells versus GBM cell lines R0315 and 4687; details: 72 hours, GBM R0315 and 4687 vs TM4 Sertoli
Protocol: The effects of SYC-851 (Compound 4-8), SYC-852 (Compound 5-1), SYC-853 (Compound 5-4), and SYC-855 (Compound 7-8) on TM4 Sertoli cells and on GBM cancer cells were determined. Cells were plated as monolayer cultures and treated 24 hours later with the indicated concentration of compounds. After 72 hours, cells were harvested and assayed for viability using a CellTiter-Glo assay […]. The results for TM4 Setoli cells and for pediatric glioblastoma multiforme cell lines R0315 and 4687 and are shown in FIGS. 18A, 18B, and 18C, respectively.

[5] = co-treatment with MCB-613, 24 hours

Chain of SRC-1 (Q15788 whole entry, the tested form may be a part): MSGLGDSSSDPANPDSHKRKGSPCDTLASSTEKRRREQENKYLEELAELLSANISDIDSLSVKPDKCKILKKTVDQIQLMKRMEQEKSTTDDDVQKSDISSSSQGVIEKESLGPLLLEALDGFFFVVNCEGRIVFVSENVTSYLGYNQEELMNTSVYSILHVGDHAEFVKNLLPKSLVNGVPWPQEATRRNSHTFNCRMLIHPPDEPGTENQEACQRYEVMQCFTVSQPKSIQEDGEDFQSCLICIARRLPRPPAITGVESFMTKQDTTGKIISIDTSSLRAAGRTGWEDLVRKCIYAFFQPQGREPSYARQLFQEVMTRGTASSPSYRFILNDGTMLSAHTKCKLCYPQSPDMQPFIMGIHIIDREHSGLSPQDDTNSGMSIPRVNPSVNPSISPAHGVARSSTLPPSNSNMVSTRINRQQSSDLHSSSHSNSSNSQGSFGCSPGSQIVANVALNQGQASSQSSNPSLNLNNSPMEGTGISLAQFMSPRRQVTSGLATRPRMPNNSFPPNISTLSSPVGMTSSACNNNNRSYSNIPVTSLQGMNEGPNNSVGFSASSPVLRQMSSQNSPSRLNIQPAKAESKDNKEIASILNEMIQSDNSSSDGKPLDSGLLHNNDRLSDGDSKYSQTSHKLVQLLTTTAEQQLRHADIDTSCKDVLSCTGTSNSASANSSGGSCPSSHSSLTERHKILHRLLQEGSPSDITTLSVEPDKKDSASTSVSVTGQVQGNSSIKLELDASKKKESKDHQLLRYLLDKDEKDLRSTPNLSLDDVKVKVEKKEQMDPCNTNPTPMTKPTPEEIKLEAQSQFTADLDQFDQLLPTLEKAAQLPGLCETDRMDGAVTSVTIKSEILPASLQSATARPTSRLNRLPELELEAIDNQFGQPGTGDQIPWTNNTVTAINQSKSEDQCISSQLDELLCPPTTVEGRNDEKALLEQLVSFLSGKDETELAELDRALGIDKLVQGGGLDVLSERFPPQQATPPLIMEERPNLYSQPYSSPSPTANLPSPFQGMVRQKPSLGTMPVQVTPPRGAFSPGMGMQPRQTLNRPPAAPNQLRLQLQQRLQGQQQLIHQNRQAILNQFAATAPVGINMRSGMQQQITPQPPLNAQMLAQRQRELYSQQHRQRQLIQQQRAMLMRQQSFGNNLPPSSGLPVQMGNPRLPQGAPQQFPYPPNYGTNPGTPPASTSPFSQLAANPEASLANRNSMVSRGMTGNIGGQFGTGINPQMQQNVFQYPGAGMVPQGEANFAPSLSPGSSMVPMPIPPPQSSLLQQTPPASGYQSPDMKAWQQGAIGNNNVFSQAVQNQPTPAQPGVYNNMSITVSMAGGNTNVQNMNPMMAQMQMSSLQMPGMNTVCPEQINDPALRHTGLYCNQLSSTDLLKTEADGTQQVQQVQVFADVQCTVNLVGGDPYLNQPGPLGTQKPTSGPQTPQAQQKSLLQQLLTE
T2 sequence (Q9Y6Q9 whole entry, the tested form may be a part): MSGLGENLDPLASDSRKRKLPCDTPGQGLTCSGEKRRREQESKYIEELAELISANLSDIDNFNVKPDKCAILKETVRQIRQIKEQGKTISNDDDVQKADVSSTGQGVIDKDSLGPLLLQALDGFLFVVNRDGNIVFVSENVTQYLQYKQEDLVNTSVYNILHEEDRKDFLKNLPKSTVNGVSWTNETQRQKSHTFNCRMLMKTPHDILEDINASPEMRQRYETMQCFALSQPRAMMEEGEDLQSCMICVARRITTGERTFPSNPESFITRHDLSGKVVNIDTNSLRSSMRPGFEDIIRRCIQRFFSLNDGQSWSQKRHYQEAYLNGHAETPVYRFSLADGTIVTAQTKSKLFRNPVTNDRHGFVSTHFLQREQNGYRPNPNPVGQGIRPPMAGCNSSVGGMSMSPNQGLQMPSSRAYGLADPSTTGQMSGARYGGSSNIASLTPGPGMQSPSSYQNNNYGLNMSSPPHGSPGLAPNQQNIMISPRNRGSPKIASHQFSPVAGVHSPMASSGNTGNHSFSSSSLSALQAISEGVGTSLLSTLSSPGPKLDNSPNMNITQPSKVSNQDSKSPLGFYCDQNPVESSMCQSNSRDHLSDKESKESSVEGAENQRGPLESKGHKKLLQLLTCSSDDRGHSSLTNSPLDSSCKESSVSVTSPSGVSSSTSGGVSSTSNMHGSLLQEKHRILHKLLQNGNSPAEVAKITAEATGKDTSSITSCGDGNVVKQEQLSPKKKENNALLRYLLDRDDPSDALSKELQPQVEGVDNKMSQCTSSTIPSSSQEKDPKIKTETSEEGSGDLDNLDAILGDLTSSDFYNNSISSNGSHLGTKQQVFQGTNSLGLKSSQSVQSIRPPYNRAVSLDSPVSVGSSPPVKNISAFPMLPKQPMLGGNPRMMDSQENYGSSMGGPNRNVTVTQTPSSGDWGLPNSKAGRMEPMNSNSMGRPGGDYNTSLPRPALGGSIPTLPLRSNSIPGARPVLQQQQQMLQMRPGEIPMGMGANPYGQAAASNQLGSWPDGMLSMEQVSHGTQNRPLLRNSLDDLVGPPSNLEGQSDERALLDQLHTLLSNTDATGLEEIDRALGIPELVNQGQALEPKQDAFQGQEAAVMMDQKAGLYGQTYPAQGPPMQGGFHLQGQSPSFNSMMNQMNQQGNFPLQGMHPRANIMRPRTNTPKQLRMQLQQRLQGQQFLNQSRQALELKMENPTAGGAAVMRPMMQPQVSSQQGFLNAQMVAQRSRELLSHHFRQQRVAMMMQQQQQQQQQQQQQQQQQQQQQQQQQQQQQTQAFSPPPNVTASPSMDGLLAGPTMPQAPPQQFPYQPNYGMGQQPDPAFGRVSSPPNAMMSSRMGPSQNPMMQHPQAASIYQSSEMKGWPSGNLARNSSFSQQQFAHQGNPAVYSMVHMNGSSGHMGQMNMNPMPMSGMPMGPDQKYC
T1 sequence (Q15596 whole entry, the tested form may be a part): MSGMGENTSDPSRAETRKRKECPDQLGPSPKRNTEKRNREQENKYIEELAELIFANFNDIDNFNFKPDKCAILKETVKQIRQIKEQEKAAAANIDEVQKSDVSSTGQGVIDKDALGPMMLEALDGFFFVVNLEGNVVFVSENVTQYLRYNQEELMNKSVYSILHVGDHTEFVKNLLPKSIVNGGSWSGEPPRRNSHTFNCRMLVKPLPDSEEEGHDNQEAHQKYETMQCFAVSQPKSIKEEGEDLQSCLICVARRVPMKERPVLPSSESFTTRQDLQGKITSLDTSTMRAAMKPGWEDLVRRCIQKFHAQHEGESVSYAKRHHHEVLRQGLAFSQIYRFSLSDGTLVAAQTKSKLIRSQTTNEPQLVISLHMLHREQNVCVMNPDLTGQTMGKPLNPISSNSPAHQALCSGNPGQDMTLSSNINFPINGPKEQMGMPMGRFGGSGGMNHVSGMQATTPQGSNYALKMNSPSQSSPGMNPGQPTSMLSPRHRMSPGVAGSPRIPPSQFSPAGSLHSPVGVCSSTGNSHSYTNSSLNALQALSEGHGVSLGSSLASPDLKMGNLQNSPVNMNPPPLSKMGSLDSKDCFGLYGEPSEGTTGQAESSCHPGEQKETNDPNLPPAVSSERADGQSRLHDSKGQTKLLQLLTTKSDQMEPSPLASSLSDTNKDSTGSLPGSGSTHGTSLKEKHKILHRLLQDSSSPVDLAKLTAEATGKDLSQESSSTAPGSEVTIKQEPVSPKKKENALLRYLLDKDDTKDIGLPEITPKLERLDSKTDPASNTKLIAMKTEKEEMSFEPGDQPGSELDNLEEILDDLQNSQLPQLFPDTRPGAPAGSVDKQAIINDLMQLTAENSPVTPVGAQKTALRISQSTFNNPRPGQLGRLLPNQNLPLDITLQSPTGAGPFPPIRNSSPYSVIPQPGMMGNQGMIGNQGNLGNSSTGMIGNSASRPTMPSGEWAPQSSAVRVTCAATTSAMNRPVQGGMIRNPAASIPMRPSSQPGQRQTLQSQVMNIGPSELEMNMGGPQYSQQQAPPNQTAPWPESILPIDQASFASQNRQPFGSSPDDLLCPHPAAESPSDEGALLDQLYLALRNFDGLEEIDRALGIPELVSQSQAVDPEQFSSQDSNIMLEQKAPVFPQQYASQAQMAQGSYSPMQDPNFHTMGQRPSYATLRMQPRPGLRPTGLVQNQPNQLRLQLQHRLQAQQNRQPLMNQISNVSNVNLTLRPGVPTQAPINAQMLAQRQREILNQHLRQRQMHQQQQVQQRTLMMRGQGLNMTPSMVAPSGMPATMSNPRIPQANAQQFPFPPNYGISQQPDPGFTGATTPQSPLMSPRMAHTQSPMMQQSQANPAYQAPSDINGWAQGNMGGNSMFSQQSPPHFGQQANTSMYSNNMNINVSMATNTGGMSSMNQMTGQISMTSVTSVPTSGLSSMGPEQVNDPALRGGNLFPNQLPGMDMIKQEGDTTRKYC

Question: What does the source list for `COc1cc(/C=C/C(=O)CC(=O)/C=C/c2ccc(O)c(OC)c2)ccc1O` [curcumin]?
Answer: intrinsic transcriptional activity of SRC-2 (SRC-2): robustly enhance; intrinsic transcriptional activity of SRC-3 (SRC-3): robustly enhance; intrinsic transcriptional activity of SRC-1 (SRC-1): robustly enhance

Question: Which “effect on activation of SRC-3 by MCB-613” value (SRC-3) does the source give for `CO[C@@H](C(=O)N1Cc2n[nH]c(NC(=O)c3ccc(N4CCN(C)CC4)cc3)c2C1)c1ccccc1` [PHA 739358] here?
Answer: The value was “significantly inhibited”.

Question: With `COC(=O)C[C@H](NC(=O)[C@H](C)NC(=O)[C@@H](NC(=O)OCc1ccccc1)C(C)C)C(=O)CF` [z-VAD-fmk] (Cbz-Val-Ala-Asp(OMe)-CH2F) as the compound, how does the “effect on activation of SRC-3 by MCB-613” value (SRC-3) read?
Answer: The value was “did not inhibit”.

Question: What does the source list for `CCCCC/C=C/C=C1/C(=O)C=C[C@@H]1C/C=C\CCCC(=O)O` [Compound 15d-PGJ2, 15-deoxy-Δ^12,14-prostaglandin J2]?
Answer: intrinsic transcriptional activity of SRC-2 (SRC-2): robustly enhance; intrinsic transcriptional activity of SRC-3 (SRC-3): robustly enhance; intrinsic transcriptional activity of SRC-1 (SRC-1): robustly enhance

Question: Which results are given for `C[C@]12CC[C@H](O)C[C@H]1CC[C@@H]1[C@@H]2CC[C@]2(C)[C@@H](c3ccc(=O)oc3)CC[C@]12O` [bufalin, reference compound]?
Answer: effect on vacuolization induced by MCB-613 (HeLa cells [1]): effectively inhibited; effect on induction of ER stress (ATF4) by MCB-613 (HeLa cells [2]): completely reversed

Question: How did the “effect on activation of SRC-3 by MCB-613” value (SRC-3) turn out when `Cn1cnc(N)c2ncnc1-2` [Compound 3-MA, 3-methyladenine] was run?
Answer: Its value is “did not inhibit”.

Question: With `CC(=O)N[C@@H](CS)C(=O)O` [N-Acetyl cysteine] as the compound, how does the “effect on activation of SRC-2 by MCB-613” value (SRC-2; [5]) read?
Answer: The value was “abrogate”.

Question: And the “effect on activation of SRC-3 by MCB-613” value (SRC-3)?
Answer: Its value is “abrogate”.

Question: And the “effect on cell death caused by MCB-613” value (HeLa cells [3])?
Answer: Its value is “protected cells from MCB-613 mediated cytotoxicity”.

Question: And the “effect on vacuolization induced by MCB-613” value (HeLa cells [1])?
Answer: Its value is “blocked”.

Question: And the “effect on activation of SRC-1 by MCB-613” value (SRC-1; [5])?
Answer: The value was “abrogate”.

Question: For `CCN(CC)CCCC(C)Nc1ccnc2cc(Cl)ccc12` (stereo not shown) [chloroquine], which “effect on activation of SRC-3 by MCB-613” value (SRC-3) is on record?
Answer: Its value is “did not inhibit”.

Question: Which “effect on cell death caused by MCB-613” value (HeLa cells [3]) does the source give for `C[C@@H]1C[C@@H]([C@H](O)CC2CC(=O)NC(=O)C2)C(=O)[C@@H](C)C1` [cycloheximide] here?
Answer: Its value is “protected cells from MCB-613 mediated cytotoxicity”.

Question: And the “effect on vacuolization induced by MCB-613” value (HeLa cells [1])?
Answer: Its value is “blocked”.

Question: For `O=C1C(=Cc2cccnc2)COCC1=Cc1cccnc1` [SYC-851], which “toxicity to cancer cells compared with non-cancer cells” value [4] is on record?
Answer: Its value is “more toxicity to cancer cells than to non-cancer cells”.

Question: How did the “intrinsic transcriptional activity of SRC-2” value (SRC-2) turn out when `CC(C)C[C@@H](C=O)NC(=O)[C@H](CC(C)C)NC(=O)[C@H](CC(C)C)NC(=O)OCc1ccccc1` [MG132] (Cbz-Leu-Leu-Leu-aldehyde) was run?
Answer: Its value is “robustly enhance”.

Question: What about the “intrinsic transcriptional activity of SRC-3” value (SRC-3) of the same compound?
Answer: Its value is “robustly enhance”.

Question: What about the “intrinsic transcriptional activity of SRC-1” value (SRC-1) of the same compound?
Answer: The value was “robustly enhance”.

Question: What does the source list for `CC(C)N1CC(=Cc2cccnc2)C(=O)C(=Cc2cccnc2)C1` [SYC-855]?
Answer: SRC-3 intrinsic transcriptional activity (luciferase) (SRC-3; Example 6): high intrinsic transcriptional activity; toxicity to cancer cells compared with non-cancer cells [4]: more toxicity to cancer cells than to non-cancer cells
